The results in this text go back to ChEMBL document CHEMBL1129561 (J Med Chem, 1996).

One may read the Ki as a measure of affinity in units of concentration, obtained from inhibition or displacement. What is called IC50 is the concentration that gives 50% inhibition. A low value points to greater potency. As usually defined, the EC50 is the concentration needed to bring the measured effect to its halfway point.

Assay [1] concerns the target T1, Glucocorticoid receptor (Homo sapiens, UniProt P04150).
T1 sequence (P04150 whole entry): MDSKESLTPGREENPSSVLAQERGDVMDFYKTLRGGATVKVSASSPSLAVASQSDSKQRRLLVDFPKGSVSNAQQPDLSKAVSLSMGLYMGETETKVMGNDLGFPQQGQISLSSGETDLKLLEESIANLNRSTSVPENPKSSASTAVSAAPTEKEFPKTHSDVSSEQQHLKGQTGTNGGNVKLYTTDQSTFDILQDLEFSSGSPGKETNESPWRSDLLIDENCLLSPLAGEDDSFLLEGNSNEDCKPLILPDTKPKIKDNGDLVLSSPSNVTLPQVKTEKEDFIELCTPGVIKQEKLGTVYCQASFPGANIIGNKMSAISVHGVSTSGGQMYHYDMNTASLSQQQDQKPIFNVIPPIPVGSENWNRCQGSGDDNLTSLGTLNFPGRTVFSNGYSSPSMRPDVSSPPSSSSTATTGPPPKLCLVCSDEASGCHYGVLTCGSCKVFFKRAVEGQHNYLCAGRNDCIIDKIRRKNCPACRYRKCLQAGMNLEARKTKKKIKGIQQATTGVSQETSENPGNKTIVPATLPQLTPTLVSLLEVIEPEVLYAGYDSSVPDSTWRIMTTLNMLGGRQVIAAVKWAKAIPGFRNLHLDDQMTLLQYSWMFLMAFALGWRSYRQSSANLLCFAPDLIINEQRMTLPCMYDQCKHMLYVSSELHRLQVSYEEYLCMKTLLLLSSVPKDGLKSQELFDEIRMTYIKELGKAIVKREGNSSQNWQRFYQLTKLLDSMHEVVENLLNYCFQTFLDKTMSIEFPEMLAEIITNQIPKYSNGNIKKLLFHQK
Description: Binding affinity was determined for human glucocorticoid receptor(hGR).

Assay [2] deals with T2, Progesterone receptor (Homo sapiens, UniProt P06401).
T2 sequence (P06401 whole entry): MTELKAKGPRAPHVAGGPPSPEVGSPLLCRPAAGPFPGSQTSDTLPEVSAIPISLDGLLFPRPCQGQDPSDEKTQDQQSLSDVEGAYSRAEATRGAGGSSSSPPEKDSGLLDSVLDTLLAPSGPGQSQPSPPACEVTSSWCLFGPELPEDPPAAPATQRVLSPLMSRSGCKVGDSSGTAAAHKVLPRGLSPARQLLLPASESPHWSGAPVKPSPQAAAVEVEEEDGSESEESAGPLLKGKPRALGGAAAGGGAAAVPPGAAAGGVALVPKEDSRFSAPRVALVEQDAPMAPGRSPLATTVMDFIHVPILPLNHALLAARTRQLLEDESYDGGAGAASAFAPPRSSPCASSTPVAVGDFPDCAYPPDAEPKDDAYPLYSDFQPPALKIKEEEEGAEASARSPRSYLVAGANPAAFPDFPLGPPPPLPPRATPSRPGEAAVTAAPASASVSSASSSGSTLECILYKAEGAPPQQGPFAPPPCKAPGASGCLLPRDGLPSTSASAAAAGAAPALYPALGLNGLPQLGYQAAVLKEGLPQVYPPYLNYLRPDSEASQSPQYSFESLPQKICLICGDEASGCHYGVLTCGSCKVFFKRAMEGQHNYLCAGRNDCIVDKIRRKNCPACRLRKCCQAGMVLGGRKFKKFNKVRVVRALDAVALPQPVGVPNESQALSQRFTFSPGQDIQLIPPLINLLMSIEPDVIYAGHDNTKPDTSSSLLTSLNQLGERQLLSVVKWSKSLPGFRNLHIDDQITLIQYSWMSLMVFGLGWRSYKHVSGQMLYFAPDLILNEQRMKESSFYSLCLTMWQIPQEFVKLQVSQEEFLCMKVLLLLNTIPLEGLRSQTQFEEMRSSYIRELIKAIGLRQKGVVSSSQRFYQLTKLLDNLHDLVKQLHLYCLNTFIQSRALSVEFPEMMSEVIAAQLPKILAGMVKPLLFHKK

For assay [3], the target named is T3, Androgen receptor (Homo sapiens, UniProt P10275).
T3 sequence (P10275 whole entry): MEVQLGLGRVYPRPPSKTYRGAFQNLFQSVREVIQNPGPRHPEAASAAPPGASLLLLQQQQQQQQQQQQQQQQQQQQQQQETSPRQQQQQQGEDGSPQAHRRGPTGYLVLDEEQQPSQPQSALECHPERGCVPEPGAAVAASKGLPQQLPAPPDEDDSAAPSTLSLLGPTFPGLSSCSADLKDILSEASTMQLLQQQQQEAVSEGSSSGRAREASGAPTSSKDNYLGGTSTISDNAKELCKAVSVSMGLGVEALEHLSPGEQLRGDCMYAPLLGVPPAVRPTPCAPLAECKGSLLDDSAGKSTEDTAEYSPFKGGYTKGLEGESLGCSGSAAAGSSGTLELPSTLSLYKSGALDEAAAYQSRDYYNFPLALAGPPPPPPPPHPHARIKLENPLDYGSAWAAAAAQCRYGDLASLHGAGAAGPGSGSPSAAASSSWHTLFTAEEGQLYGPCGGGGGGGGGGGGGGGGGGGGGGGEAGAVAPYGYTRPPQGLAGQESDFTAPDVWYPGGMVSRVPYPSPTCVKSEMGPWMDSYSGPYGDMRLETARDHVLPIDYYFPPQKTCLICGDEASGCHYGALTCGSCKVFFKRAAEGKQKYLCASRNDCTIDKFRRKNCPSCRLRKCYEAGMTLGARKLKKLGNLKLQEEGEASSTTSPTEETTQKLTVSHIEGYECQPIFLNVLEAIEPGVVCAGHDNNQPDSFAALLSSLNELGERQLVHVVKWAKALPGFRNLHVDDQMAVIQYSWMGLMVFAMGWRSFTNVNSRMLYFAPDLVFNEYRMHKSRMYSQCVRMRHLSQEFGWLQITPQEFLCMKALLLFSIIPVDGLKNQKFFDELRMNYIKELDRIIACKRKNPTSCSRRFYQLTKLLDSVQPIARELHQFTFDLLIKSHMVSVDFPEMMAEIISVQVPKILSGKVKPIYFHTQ
Description: Binding affinity determined against human Androgen receptor

The target of assay [4] is T4, Progesterone receptor (Homo sapiens) (UniProt P06401).
T4 sequence (whole entry): T2 sequence (P06401 whole entry)
Conditions: CV-1.

Assay [5] deals with T2, Progesterone receptor. The source holds these as a separate data set.
Assay [6] concerns the target T4, Progesterone receptor (Homo sapiens). The settings on record: CV-1. The source holds these as a separate data set.
In assay [7] the target is T2, Progesterone receptor. The source holds these as a separate data set.
The target of assay [8] is T5, Estrogen receptor (Homo sapiens, UniProt Q92731+P03372).
Description: Inhibitory activity against human estrogen receptor
Assay [9] has as its target T3, Androgen receptor. This is another data set of the same source.
Description: Inhibitory activity against human Androgen receptor
The target of assay [10] is T1, Glucocorticoid receptor. In words: Inhibitory activity against human glucocorticoid receptor (hGR).
For assay [11], the target named is T1, Glucocorticoid receptor. As to the kind of experiment: Binding affinity against human glucocorticoid receptor(hGR).
Assay [12] deals with T5, Estrogen receptor. This is another data set of the same source.
Description: Binding affinity for human estrogen receptor
For assay [13], the target named is T6, Mineralocorticoid receptor (Homo sapiens, UniProt P08235).
T6 sequence (P08235 whole entry): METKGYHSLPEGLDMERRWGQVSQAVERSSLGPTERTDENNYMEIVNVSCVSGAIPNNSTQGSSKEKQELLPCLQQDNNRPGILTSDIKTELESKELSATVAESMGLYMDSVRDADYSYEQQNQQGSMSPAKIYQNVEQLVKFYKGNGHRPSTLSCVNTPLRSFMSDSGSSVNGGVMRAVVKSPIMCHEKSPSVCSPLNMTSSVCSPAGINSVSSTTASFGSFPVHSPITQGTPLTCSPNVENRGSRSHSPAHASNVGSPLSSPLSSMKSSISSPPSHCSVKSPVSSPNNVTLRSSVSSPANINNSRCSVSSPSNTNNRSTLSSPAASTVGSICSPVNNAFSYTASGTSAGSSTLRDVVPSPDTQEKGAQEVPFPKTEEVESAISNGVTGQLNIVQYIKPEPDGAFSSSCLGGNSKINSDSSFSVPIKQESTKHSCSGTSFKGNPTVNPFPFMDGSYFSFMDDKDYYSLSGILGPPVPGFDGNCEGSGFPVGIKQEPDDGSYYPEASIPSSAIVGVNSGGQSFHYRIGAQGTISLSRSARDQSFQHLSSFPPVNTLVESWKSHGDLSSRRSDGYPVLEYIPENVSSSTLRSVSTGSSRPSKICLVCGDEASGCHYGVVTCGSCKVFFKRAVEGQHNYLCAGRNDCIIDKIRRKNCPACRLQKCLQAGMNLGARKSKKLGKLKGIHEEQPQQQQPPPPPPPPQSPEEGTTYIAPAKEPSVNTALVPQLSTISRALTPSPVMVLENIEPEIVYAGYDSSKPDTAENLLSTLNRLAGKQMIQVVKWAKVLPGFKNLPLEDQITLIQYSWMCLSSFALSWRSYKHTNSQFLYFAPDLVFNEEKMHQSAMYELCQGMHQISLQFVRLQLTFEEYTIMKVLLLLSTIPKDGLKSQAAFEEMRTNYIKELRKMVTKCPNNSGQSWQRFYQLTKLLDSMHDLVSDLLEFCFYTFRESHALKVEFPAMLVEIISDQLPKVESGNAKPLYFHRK
As to the kind of experiment: Inhibitory activity against human mineralocorticoid receptor (hMR).

Assay [14] deals with T2, Progesterone receptor. In words: Effective concentration against human Progesterone receptor B isoform expressed in CV-1 cells. Type of assay: cell-based.
Assay [15] concerns the target T2, Progesterone receptor. The source holds these as a separate data set.
Assay [16] concerns the target T3, Androgen receptor. The source holds these as a separate data set.
Description: Binding affinity for human Androgen receptor
Assay [17] deals with T1, Glucocorticoid receptor. The source holds these as a separate data set.
For assay [18], the target named is T6, Mineralocorticoid receptor.

The structures appear in SMILES notation.

Consider `C=C1C[C@H](CO)CC(C)(C)[C@@H]1Cc1cc(OC)c(Br)cc1O`, for which the inhibition constant Ki in [1] amounted to 6.39 µM; in [3] it was 6.81 µM; in [5], 3.25 µM. For the same compound, the figures for the concentration for half-maximal inhibition (IC50) in assay [2] and in [7] were 3.3 µM and 2 µM, respectively. The Max inhibition in [4] and in assay [6] was 87% throughout.
As to `C=C1CC[C@@H](Br)C(C)(C)[C@H]1Cc1cc(OC)c(Br)cc1O`, the IC50 is 0.549 µM in assay [2]; above 10 µM in assay [8]; 0.449 µM in [9]; above 10 µM in assay [10]; 0.354 µM in assay [7]. Further, the values for the inhibitory constant (Ki) in [5] and in assay [11] were 0.49 µM and 3.21 µM, respectively. Besides, in assay [6], the Max inhibition amounted to 83%.
Turning to `C=C1CCCC(C)(C)[C@H]1Cc1cc(OC)c(Br)cc1O`, the Ki in assay [1] is 1.77 µM; in assay [12] it was above 10 µM; in assay [5] it was 0.218 µM. Also, the IC50 in assay [2] is 0.741 µM; in [8] it was above 10 µM; in [13], 1.5 µM; in assay [10], above 10 µM; in assay [7], 0.21 µM. The compound also gave a Max inhibition in assay [6] of 94%.
For `C=C1C=C(C)CC(C)(C)C1C/C=C/c1cc(OC)c(Br)cc1O` (configuration not stated), the results for the Ki in [1], in assay [3] and in [5] were 4.42 µM, 2.32 µM and 0.084 µM, respectively. A half-maximal effect in [14] (EC50) was put at 3.3 µM. The compound further gave a Max inhibition in assay [6] of 61%. Also, in [7], the IC50 worked out at 1.6 µM.
Take `C=C1C[C@H](C)CC(C)(C)[C@@H]1Cc1cc(OC)c(Br)cc1O`: the Ki came to 1.04 µM in [1], 0.696 µM in [3] and 0.022 µM in assay [5]. The compound also returned an EC50 in assay [15] of 0.458 µM. The Max inhibition in assay [6] was below 20%. For the same compound, in assay [7], the IC50 is above 10 µM.
In the case of `CN(C)c1ccc([C@H]2CC3(C)[C@@H](CC[C@]3(O)CCCO)[C@@H]3CCC4=CC(=O)CCC4=C32)cc1` (single isomer, unassigned) [ONAPRISTONE], the figures for the Ki in [16], in [1] and in assay [12] were above 0.1 µM, 0.0418 µM and below 0.02 µM, respectively. Moreover, the concentration for half-maximal inhibition (IC50) was above 1 µM in [8], 0.027 µM in [17], 0.269 µM in assay [9] and above 1 µM in assay [18]. In [4], this compound registered a Max inhibition of 99%.
Take `C=C1CC[C@@H](Br)C(C)(C)[C@@H]1Cc1cc(OC)c(Br)cc1O`: the Ki in assay [1] was found to be 2.47 µM; in [5], 0.343 µM. Besides, the concentration for half-maximal inhibition (IC50) in [8] is above 10 µM; in assay [9] it was 0.238 µM; in [10] it was above 10 µM; in [7], 3.5 µM. The compound also showed an EC50 in [15] of 0.035 µM. Further, the Max inhibition in assay [6] is below 20%.
